Source: the supplement of paper PMC10307832

Key:
Assay in all cases: relative viability (nuclei count vs DMSO), 5 days (fraction); higher = more cells survive
AZD8055 + Bortezomib = compound: COc1ccc(-c2ccc3c(N4CCOC[C@@H]4C)nc(N4CCOC[C@@H]4C)nc3n2)cc1CO [AZD8055] + CC(C)C[C@H](NC(=O)[C@H](Cc1ccccc1)NC(=O)c1cnccn1)B(O)O [Bortezomib] (partner 0.002 µM)
Outline: (§1)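 For relative viability, nuclei counts in treated wells were divided by those in vehicle wells. Lung cancer cell lines had been pin-tool dosed in 1536-well plates the day after seeding and cultured for 5 days, then fixed and stained in one step (final 0.05% Triton X-100, 1% formaldehyde, 1 ug/ml Hoechst) and imaged at 4×. Doses were one drug alone or a fixed anchor-drug dose plus five library-drug doses (not always all listed) in √10 steps, and values are duplicate-plate medians.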

AZD8055 + Pictilisib = compound: COc1ccc(-c2ccc3c(N4CCOC[C@@H]4C)nc(N4CCOC[C@@H]4C)nc3n2)cc1CO [AZD8055] + CS(=O)(=O)N1CCN(Cc2cc3nc(-c4cccc5[nH]ncc45)nc(N4CCOCC4)c3s2)CC1 [Pictilisib] (partner 1 µM)
Outline: as §1

AZD8055 + Olaparib = compound: COc1ccc(-c2ccc3c(N4CCOC[C@@H]4C)nc(N4CCOC[C@@H]4C)nc3n2)cc1CO [AZD8055] + O=C(c1cc(Cc2n[nH]c(=O)c3ccccc23)ccc1F)N1CCN(C(=O)C2CC2)CC1 [Olaparib] (partner 8 µM)
Outline: as §1

AZD8055 + Trametinib = compound: COc1ccc(-c2ccc3c(N4CCOC[C@@H]4C)nc(N4CCOC[C@@H]4C)nc3n2)cc1CO [AZD8055] + CC(=O)Nc1cccc(-n2c(=O)n(C3CC3)c(=O)c3c(Nc4ccc(I)cc4F)n(C)c(=O)c(C)c32)c1 [Trametinib] (partner 0.02 µM)
Outline: as §1

Cell Line | relative viability (AZD8055 + Bortezomib; first compound 0.01 µM) | relative viability (AZD8055 + Bortezomib; first compound 0.03162 µM) | relative viability (AZD8055 + Bortezomib; first compound 0.1 µM) | relative viability (AZD8055 + Bortezomib; first compound 0.3162 µM) | relative viability (AZD8055 + Bortezomib; first compound 1 µM) | relative viability (AZD8055 + Pictilisib; first compound 0.01 µM) | relative viability (AZD8055 + Pictilisib; first compound 0.03162 µM) | relative viability (AZD8055 + Pictilisib; first compound 0.1 µM) | relative viability (AZD8055 + Pictilisib; first compound 0.3162 µM) | relative viability (AZD8055 + Pictilisib; first compound 1 µM) | relative viability (AZD8055 + Olaparib; first compound 0.01 µM) | relative viability (AZD8055 + Olaparib; first compound 0.03162 µM) | relative viability (AZD8055 + Olaparib; first compound 0.1 µM) | relative viability (AZD8055 + Olaparib; first compound 0.3162 µM) | relative viability (AZD8055 + Olaparib; first compound 1 µM) | relative viability (AZD8055 + Trametinib; first compound 0.01 µM) | relative viability (AZD8055 + Trametinib; first compound 0.03162 µM) | relative viability (AZD8055 + Trametinib; first compound 0.1 µM) | relative viability (AZD8055 + Trametinib; first compound 0.3162 µM) | relative viability (AZD8055 + Trametinib; first compound 1 µM)
HCC-44 | 1.01 | 0.942 | 0.853 | 0.494 | 0.449 | 0.447 | 0.396 | 0.376 | 0.267 | 0.347 | 1.03 | 1.04 | 0.957 | 0.847 | 0.861 | 0.994 | 1.16 | 0.907 | 0.802 | 0.731
HCC-78 | 0.561 | 0.466 | 0.423 | 0.274 | 0.288 | 0.216 | 0.218 | 0.164 | 0.178 | 0.164 | 0.758 | 0.632 | 0.54 | 0.388 | 0.383 | 0.819 | 0.596 | 0.597 | 0.409 | 0.349
HCC-366 | 1.31 | 0.863 | 0.98 | 0.337 | 0.123 | 0.0713 | 0.137 | 0.132 | 0.0885 | 0.0934 | 0.426 | 0.275 | 0.273 | 0.143 | 0.136 | 0.35 | 0.217 | 0.166 | 0.0931 | 0.0678
HCC-827 | 1.2 | 1.04 | 1.11 | 0.935 | 1.08 | 1.1 | 0.875 | 0.741 | 0.495 | 0.477 | 0.651 | 0.523 | 0.494 | 0.281 | 0.172 | 0.499 | 0.445 | 0.364 | 0.264 | 0.258
HOP-62 | 0.669 | 0.747 | 0.969 | 0.304 | 0.469 | 0.878 | 0.534 | 0.582 | 0.246 | 0.259 | 0.756 | 0.501 | 0.45 | 0.5 | 0.184 | 0.423 | 0.338 | 0.27 | 0.195 | 0.194
IA-LM | 0.706 | 0.363 | 0.114 | 0.106 | 0.0977 | 0.221 | 0.217 | 0.118 | 0.0814 | 0.0826 | 0.8 | 0.823 | 0.551 | 0.302 | 0.114 | – | – | – | – | –
LC-2-ad | 1.08 | 1.01 | 1.08 | 0.777 | 0.537 | 0.464 | 0.458 | 0.322 | 0.339 | 0.255 | 0.748 | 0.778 | 0.759 | 0.835 | 0.704 | 0.989 | 0.917 | 0.828 | 0.907 | 0.715
LK-2 | – | – | – | – | – | 0.571 | 0.438 | 0.368 | 0.335 | 0.195 | 0.769 | 0.436 | 0.379 | 0.144 | 0.171 | 0.68 | 0.575 | 0.509 | 0.238 | 0.199
NCI-H358 | – | – | – | – | – | 0.334 | 0.301 | 0.233 | 0.222 | 0.245 | 0.563 | 0.594 | 0.543 | 0.202 | 0.12 | 0.144 | 0.144 | 0.116 | 0.106 | 0.116
NCI-H522 | – | – | – | – | – | – | – | – | – | – | 0.603 | 0.686 | 0.543 | 0.387 | 0.385 | 0.747 | 0.648 | 0.574 | 0.494 | 0.462
NCI-H1299 | 1.08 | 1.05 | 1.11 | 0.931 | 0.576 | 0.635 | 0.572 | 0.363 | 0.24 | 0.233 | 1.06 | 1.03 | 0.889 | 0.574 | 0.353 | – | – | – | – | –
NCI-H1395 | – | – | – | – | – | 0.587 | 0.535 | 0.636 | 0.478 | 0.425 | 0.479 | 0.412 | 0.407 | 0.358 | 0.432 | 0.977 | 0.793 | 0.712 | 0.514 | 0.544
NCI-H1563 | 0.862 | 0.808 | 0.758 | 0.599 | 0.773 | 0.651 | 0.614 | 0.65 | 0.61 | 0.638 | – | – | – | – | – | – | – | – | – | –
NCI-H1648 | – | – | – | – | – | – | – | – | – | – | 0.658 | 0.739 | 0.561 | 0.239 | 0.287 | 0.396 | 0.446 | 0.342 | 0.316 | 0.209
NCI-H1703 | 0.278 | 0.231 | 0.18 | 0.181 | 0.194 | 0.24 | 0.263 | 0.257 | 0.232 | 0.255 | 0.751 | 0.279 | 0.326 | 0.232 | 0.182 | – | – | – | – | –
NCI-H1793 | – | – | – | – | – | 0.288 | 0.268 | 0.177 | 0.238 | 0.156 | 0.528 | 0.329 | 0.221 | 0.203 | 0.213 | 0.449 | 0.274 | 0.279 | 0.183 | 0.22
NCI-H1944 | – | – | – | – | – | 0.323 | 0.302 | 0.278 | 0.275 | 0.287 | 0.41 | 0.428 | 0.393 | 0.254 | 0.259 | 0.411 | 0.378 | 0.292 | 0.228 | 0.191
NCI-H2170 | – | – | – | – | – | 0.273 | 0.255 | 0.213 | 0.222 | 0.23 | 0.67 | 0.572 | 0.37 | 0.198 | 0.183 | 0.957 | 0.864 | 0.614 | 0.222 | 0.159
NCI-H2342 | – | – | – | – | – | – | – | – | – | – | 0.376 | 0.439 | 0.362 | 0.309 | 0.289 | 0.894 | 0.731 | 0.598 | 0.552 | 0.525
SK-MES-1 | – | – | – | – | – | 0.311 | 0.355 | 0.299 | 0.181 | 0.236 | 0.748 | 0.484 | 0.328 | 0.208 | 0.262 | 0.462 | 0.543 | 0.354 | 0.313 | 0.303
SW 900 | – | – | – | – | – | – | – | – | – | – | 0.812 | 0.952 | 0.719 | 0.48 | 0.502 | 0.897 | 0.783 | 0.622 | 0.374 | 0.505
